Source: US20260297070A1, “CYCLIC [COMPOUND LEFT OUT] WRN INHIBITORS” (Nimbus Wadjet, Inc., priority 2023, published 2026)

The compounds below were run against T1, human Werner helicase (WRN-BV08, Uniprot Q14191, amino acids 517-1235 with L1074F point mutation) (Homo sapiens, UniProt Q14191, L1074F) (assay: WRN (BV08) ADP-Glo Assay). Settings: 0.15 nM WRN, 5 μM ATP, 0.1 nM DNA duplex, 15 min preincubation, 60 min at 25° C., pH 7.5, 1% DMSO; read-out: ADP-Glo_hWRN_IC50.
T1 construct: Uniprot Q14191, amino acids 517-1235 with L1074F point mutation; TEV-cleavable 8×His (C, cleaved yes); made in house; host or cells: Sf9 insect cells (baculovirus)
T1 sequence (Q14191 with tags, fused parts or gaps L1074F limits assumed): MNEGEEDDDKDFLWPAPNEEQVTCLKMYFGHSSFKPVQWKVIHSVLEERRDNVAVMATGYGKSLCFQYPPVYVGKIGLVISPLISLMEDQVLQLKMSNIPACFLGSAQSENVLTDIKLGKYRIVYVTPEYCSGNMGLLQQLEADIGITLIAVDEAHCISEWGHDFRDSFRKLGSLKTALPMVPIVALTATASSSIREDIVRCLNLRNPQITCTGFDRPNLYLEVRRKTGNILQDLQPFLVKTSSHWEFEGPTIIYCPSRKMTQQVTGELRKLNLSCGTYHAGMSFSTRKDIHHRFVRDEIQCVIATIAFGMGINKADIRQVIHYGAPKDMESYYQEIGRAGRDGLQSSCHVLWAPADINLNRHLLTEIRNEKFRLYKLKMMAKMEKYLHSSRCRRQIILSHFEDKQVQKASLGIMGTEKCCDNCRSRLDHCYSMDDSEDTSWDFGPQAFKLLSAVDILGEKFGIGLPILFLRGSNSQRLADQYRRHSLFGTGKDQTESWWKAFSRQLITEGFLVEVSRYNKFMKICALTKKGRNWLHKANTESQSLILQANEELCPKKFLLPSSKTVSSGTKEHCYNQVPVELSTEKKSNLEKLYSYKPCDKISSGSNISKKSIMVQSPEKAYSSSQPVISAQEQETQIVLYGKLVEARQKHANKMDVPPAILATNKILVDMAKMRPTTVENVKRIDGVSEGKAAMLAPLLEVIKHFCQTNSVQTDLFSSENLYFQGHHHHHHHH
Format: biochemical
Summary of the method: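 Helicase ATPase activity is measured at 25 °C over 60 min using 0.15 nM enzyme, 5 μM ATP and 0.1 nM DNA duplex, final DMSO 1%. ADP production is detected by luminescence, with IC50 derived by curve fitting.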

Question: How did the IC50 turn out when `CCN(C)C(=O)C(C(=O)N(Cc1ccnc(C(C)(C)O)c1)C1C=CS(=O)(=O)C1)c1ccc(-c2ccc(F)c(F)c2)cc1F` (stereo not drawn) [I-75, N′-(1,1-dioxo-2,3-dihydro-1lambda6-thiophen-3-yl)-N-ethyl-N′-{[2-(2-hydroxypropan-2-yl)pyridin-4-yl]methyl}-N-methyl-2-{3,3′,4′-trifluoro-[1,1′-biphenyl]-4-yl}propanediamide] was run?
Answer: < 0.5 µM

Question: Which IC50 does the source give for `CC(C)(O)c1cc(CN(C(=O)Cn2cc(-c3ccccc3)cn2)C2C=CS(=O)(=O)C2)ccn1` (stereo not drawn) [I-76, N-(1,1-dioxo-2,3-dihydro-1lambda6-thiophen-3-yl)-N-{[2-(2-hydroxypropan-2-yl)pyridin-4-yl]methyl}-2-(4-phenyl-1H-pyrazol-1-yl)acetamide] here?
Answer: < 0.5 µM

Question: How did the IC50 turn out when `CC(C)(O)c1cc(CN(C(=O)C(F)c2ccc(-c3ccc(F)c(F)c3)cc2F)C2C=CS(=O)(=O)C2)ccn1` (stereo not drawn) [I-77, N-(1,1-dioxo-2,3-dihydro-1lambda6-thiophen-3-yl)-2-fluoro-N-{[2-(2-hydroxypropan-2-yl)pyridin-4-yl]methyl}-2-{3,3′,4′-trifluoro-[1,1′-biphenyl]-4-yl}acetamide] was run?
Answer: < 0.5 µM

Question: How did the IC50 turn out when `Cc1cccn1-c1ccc(CC(=O)N(Cc2ccnc3c2CCC3(C)O)C2C=CS(=O)(=O)C2)c(F)c1` (stereo not drawn) [I-78, N-(1,1-dioxo-2,3-dihydro-1lambda6-thiophen-3-yl)-2-[2-fluoro-4-(2-methyl-1H-pyrrol-1-yl)phenyl]-N-({7-hydroxy-7-methyl-5H,6H,7H-cyclopenta[b]pyridin-4-yl}methyl)acetamide] was run?
Answer: < 0.5 µM

Question: Which IC50 does the source give for `CC(C)(O)c1csc(CN(C(=O)Cc2ccc(-c3ccc(F)cc3)cc2F)C2C=CS(=O)(=O)C2)n1` (stereo not drawn) [I-79, 2-(3,4′-difluoro-[1,1′-biphenyl]-4-yl)-N-(1,1-dioxido-2,3-dihydrothiophen-3-yl)-N-((4-(2-hydroxypropan-2-yl)thiazol-2-yl)methyl)acetamide] here?
Answer: < 0.5 µM

Question: Which IC50 does the source give for `O=C(Cc1ccc(-c2ccc(F)cc2)cc1F)N(Cc1nc(C2CC2)cs1)C1C=CS(=O)(=O)C1` (stereo not drawn) [I-80, N-[(4-cyclopropyl-1,3-thiazol-2-yl)methyl]-2-{3,4′-difluoro-[1,1′-biphenyl]-4-yl}-N-(1,1-dioxo-2,3-dihydro-1lambda6-thiophen-3-yl)acetamide] here?
Answer: < 0.5 µM

Question: `COC(C(=O)N(Cc1ccnc(C(C)(C)O)c1)C1C=CS(=O)(=O)C1)c1ccc(S(F)(F)(F)(F)F)cc1` (stereo not drawn) [I-81, N-(1,1-dioxido-2,3-dihydrothiophen-3-yl)-N-((2-(2-hydroxypropan-2-yl)pyridin-4-yl)methyl)-2-methoxy-2-(4-(pentafluoro-λ^6-sulfaneyl)phenyl)acetamide] was tested. Which IC50 did it give?
Answer: < 0.5 µM

Question: With `CC(C)(O)c1cc(CN(C(=O)Cc2ncc(-c3ccc(F)c(F)c3)cc2F)C2C=CS(=O)(=O)C2)ccn1` (stereo not drawn) [I-82, 2-[5-(3,4-difluorophenyl)-3-fluoropyridin-2-yl]-N-(1,1-dioxo-2,3-dihydro-1lambda6-thiophen-3-yl)-N-{[2-(2-hydroxypropan-2-yl)pyridin-4-yl]methyl}acetamide] as the compound, how does the IC50 read?
Answer: < 0.5 µM

Question: How did the IC50 turn out when `O=C(Cc1ccc(-n2cccc2)cc1)N(Cc1nc(C2CC2)cs1)[C@@H]1C=CS(=O)(=O)C1` [I-83, N-[(4-cyclopropyl-1,3-thiazol-2-yl)methyl]-N-[(3R)-1,1-dioxo-2,3-dihydro-1lambda6-thiophen-3-yl]-2-[4-(1H-pyrrol-1-yl)phenyl]acetamide] was run?
Answer: < 0.5 µM

Question: For `CCOc1cc(CN(C(=O)Cc2ccc(-c3ccc(F)cc3)cc2F)C2C=CS(=O)(=O)C2)ccn1` (stereo not drawn) [I-84, 2-{3,4′-difluoro-[1,1′-biphenyl]-4-yl}-N-(1,1-dioxo-2,3-dihydro-1lambda6-thiophen-3-yl)-N-[(2-ethoxypyridin-4-yl)methyl]acetamide], which IC50 is on record?
Answer: 0.5 to 5 µM

Question: Which IC50 does the source give for `COc1cc(CN(C(=O)Cn2cc(-c3ccc(Cl)cc3)cn2)C2C=CS(=O)(=O)C2)ccn1` (stereo not drawn) [I-85, 2-[4-(4-chlorophenyl)-1H-pyrazol-1-yl]-N-(1,1-dioxo-2,3-dihydro-1lambda6-thiophen-3-yl)-N-[(2-methoxypyridin-4-yl)methyl]acetamide] here?
Answer: < 0.5 µM

Question: With `COc1cc(CN(C(=O)C(OC)c2ccc(-c3ccc(F)cc3)cc2)C2C=CS(=O)(=O)C2)ccn1` (stereo not drawn) [I-86, N-(1,1-dioxo-2,3-dihydro-1lambda6-thiophen-3-yl)-2-{4′-fluoro-[1,1′-biphenyl]-4-yl}-2-methoxy-N-[(2-methoxypyridin-4-yl)methyl]acetamide] as the compound, how does the IC50 read?
Answer: 0.5 to 5 µM

Question: How did the IC50 turn out when `COc1cc(CN(C(=O)Cc2ccc(-c3ccc(F)cc3)cc2F)C2C=CS(=O)(=O)C2)ccn1` (stereo not drawn) [I-87, 2-{3,4′-difluoro-[1,1′-biphenyl]-4-yl}-N-(1,1-dioxo-2,3-dihydro-1lambda6-thiophen-3-yl)-N-[(2-methoxypyridin-4-yl)methyl]acetamide] was run?
Answer: 0.5 to 5 µM

Question: How did the IC50 turn out when `O=C(Cc1ccc(-c2ccc(F)cc2)cc1)N(Cc1nc(C2CC2)cs1)C1C=CS(=O)(=O)C1` (stereo not drawn) [I-88, N-[(4-cyclopropyl-1,3-thiazol-2-yl)methyl]-N-(1,1-dioxo-2,3-dihydro-1lambda6-thiophen-3-yl)-2-{4′-fluoro-[1,1′-biphenyl]-4-yl}acetamide] was run?
Answer: 0.5 to 5 µM

Question: Which IC50 does the source give for `CN(C)c1cc(CN(C(=O)Cc2ccc(S(F)(F)(F)(F)F)cc2)C2C=CS(=O)(=O)C2)ccn1` (stereo not drawn) [I-89, N-{[2-(dimethylamino)pyridin-4-yl]methyl}-N-(1,1-dioxo-2,3-dihydro-1lambda6-thiophen-3-yl)-2-[4-(pentafluoro-lambda6-sulfanyl)phenyl]acetamide] here?
Answer: 0.5 to 5 µM

Question: For `Cc1cccn1-c1ccc(CC(=O)N(Cc2ccnc(C3(O)CC3)c2)C2C=CS(=O)(=O)C2)c(F)c1` (stereo not drawn) [I-90, N-(1,1-dioxo-2,3-dihydro-1lambda6-thiophen-3-yl)-2-[2-fluoro-4-(2-methyl-1H-pyrrol-1-yl)phenyl]-N-{[2-(1-hydroxycyclopropyl)pyridin-4-yl]methyl}acetamide], which IC50 is on record?
Answer: 0.5 to 5 µM

Question: With `COc1cc(CN(C(=O)Cc2ccc(-c3cccc(F)c3)cc2F)C2C=CS(=O)(=O)C2)ccn1` (stereo not drawn) [I-91, 2-{3,3′-difluoro-[1,1′-biphenyl]-4-yl}-N-(1,1-dioxo-2,3-dihydro-1lambda6-thiophen-3-yl)-N-[(2-methoxypyridin-4-yl)methyl]acetamide] as the compound, how does the IC50 read?
Answer: 0.5 to 5 µM

Question: How did the IC50 turn out when `COc1cc(CN(C(=O)C(OC)c2ccc(S(F)(F)(F)(F)F)cc2)C2C=CS(=O)(=O)C2)ccn1` (stereo not drawn) [I-92, N-(1,1-dioxo-2,3-dihydro-1lambda6-thiophen-3-yl)-2-methoxy-N-[(2-methoxypyridin-4-yl)methyl]-2-[4-(pentafluoro-lambda6-sulfanyl)phenyl]acetamide] was run?
Answer: 0.5 to 5 µM

Question: With `COc1cc(CN(C(=O)C2Cc3cc(-n4cccc4)ccc32)C2C=CS(=O)(=O)C2)ccn1` (stereo not drawn) [I-93, N-(1,1-dioxo-2,3-dihydro-1lambda6-thiophen-3-yl)-N-[(2-methoxypyridin-4-yl)methyl]-3-(1H-pyrrol-1-yl)bicyclo[4.2.0]octa-1,3,5-triene-7-carboxamide] as the compound, how does the IC50 read?
Answer: 0.5 to 5 µM

Question: `COc1cc(CN(C(=O)Cn2cc(-c3ccccc3)cn2)C2C=CS(=O)(=O)C2)ccn1` (stereo not drawn) [I-94, N-(1,1-dioxo-2,3-dihydro-1lambda6-thiophen-3-yl)-N-[(2-methoxypyridin-4-yl)methyl]-2-(4-phenyl-1H-pyrazol-1-yl)acetamide] was tested. Which IC50 did it give?
Answer: 0.5 to 5 µM

Question: With `COc1cc(CN(C(=O)Cc2ccc(-n3cccc3)cc2F)C2C=CS(=O)(=O)C2)ccn1` (stereo not drawn) [I-95, N-(1,1-dioxo-2,3-dihydro-1lambda6-thiophen-3-yl)-2-[2-fluoro-4-(1H-pyrrol-1-yl)phenyl]-N-[(2-methoxypyridin-4-yl)methyl]acetamide] as the compound, how does the IC50 read?
Answer: 0.5 to 5 µM

Question: `Cc1cccn1-c1ccc(CC(=O)N(Cc2ccnc(N(C)C)c2)C2C=CS(=O)(=O)C2)c(F)c1` (stereo not drawn) [I-96, N-{[2-(dimethylamino)pyridin-4-yl]methyl}-N-(1,1-dioxo-2,3-dihydro-1lambda6-thiophen-3-yl)-2-[2-fluoro-4-(2-methyl-1H-pyrrol-1-yl)phenyl]acetamide] was tested. Which IC50 did it give?
Answer: 0.5 to 5 µM

Question: With `COc1cc(CN(C(=O)Cc2ccc(C3(C)CC3)cc2F)C2C=CS(=O)(=O)C2)ccn1` (stereo not drawn) [I-97, N-(1,1-dioxo-2,3-dihydro-1lambda6-thiophen-3-yl)-2-[2-fluoro-4-(1-methylcyclopropyl)phenyl]-N-[(2-methoxypyridin-4-yl)methyl]acetamide] as the compound, how does the IC50 read?
Answer: 0.5 to 5 µM

Question: For `CC(C)(O)c1cc(CN(C(=O)C2CNc3cc(-c4ccc(F)cc4)ccc32)C2C=CS(=O)(=O)C2)ccn1` (stereo not drawn) [I-98, N-(1,1-dioxo-2,3-dihydro-1lambda6-thiophen-3-yl)-6-(4-fluorophenyl)-N-{[2-(2-hydroxypropan-2-yl)pyridin-4-yl]methyl}-2,3-dihydro-1H-indole-3-carboxamide], which IC50 is on record?
Answer: 0.5 to 5 µM

Question: `CN(C)c1cc(CN(C(=O)Cc2ccc(-c3ccc(F)c(F)c3)cc2F)C2C=CS(=O)(=O)C2)ccn1` (stereo not drawn) [I-99, N-{[2-(dimethylamino)pyridin-4-yl]methyl}-N-(1,1-dioxo-2,3-dihydro-1lambda6-thiophen-3-yl)-2-{3,3′,4′-trifluoro-[1,1′-biphenyl]-4-yl}acetamide] was tested. Which IC50 did it give?
Answer: 0.5 to 5 µM

Question: `Cc1cccn1-c1ccc(CC(=O)N(Cc2ccc(Br)cc2)C2C=CS(=O)(=O)C2)c(F)c1` (stereo not drawn) [I-100, N-[(4-bromophenyl)methyl]-N-(1,1-dioxo-2,3-dihydro-1lambda6-thiophen-3-yl)-2-[2-fluoro-4-(2-methyl-1H-pyrrol-1-yl)phenyl]acetamide] was tested. Which IC50 did it give?
Answer: 0.5 to 5 µM

Question: Which IC50 does the source give for `CC(C)(O)c1cc(CN(C(=O)Cc2ccc(-c3ccc(F)cc3)cc2Cl)C2C=CS(=O)(=O)C2)ccn1` (stereo not drawn) [I-101, 2-{3-chloro-4′-fluoro-[1,1′-biphenyl]-4-yl}-N-(1,1-dioxo-2,3-dihydro-1lambda6-thiophen-3-yl)-N-{[2-(2-hydroxypropan-2-yl)pyridin-4-yl]methyl}acetamide] here?
Answer: 0.5 to 5 µM
